Laboratory results published in patent publication US20040126343A1, “Nail drug delivery” (priority 2002, published 2004).
Blank lines part the entries; values can stand above or below the compound they belong to.

How the values were obtained:
[1] = Penetration of radiolabeled model compounds into human nail plate, diffusion cell, twice daily topical dosing for 7 days; settings: for Percent Applied Dose, Cotton supporting bed / Percent Applied Dose, Dorsal/intermediate center / Percent Applied Dose, Remainder of nail / Percent Applied Dose, Subtotal (nail) / Percent Applied Dose, Surface Washing / Percent Applied Dose, Total (mass balance) / Percent Applied Dose, Ventral/intermediate center / Radioactive Content, Dorsal/intermediate center / Radioactive Content, Ventral/intermediate center: mean (SD) of five tests; for Radioactive Content, Dorsal/intermediate center / Radioactive Content, Ventral/intermediate center / Increase of radioactivity in the ventral surface of the nail plate, carrier formulation compared with saline control: twice daily for 7 days; for Increase of radioactivity in the ventral surface of the nail plate, carrier formulation compared with saline control: p<0.05
Experimental: Nail plates were collected from adult human cadavers and stored in a closed container at 0° C. Before each experiment, nail samples were gently washed with normal saline to remove any contamination, then rehydrated by placing them for 3 h on a cloth wetted with normal saline.
The test formulation contains 45% DMSO, 11% glycerin, 11% ethanol, 11% propylene glycol and water, as discussed in Hewitt P G, et al., 1998, Pharm Res 15:988-992. Normal saline (ABBOTT Laboratories, North Chicago, Ill.) was the control. […] A 5 μL aliquot was removed from each vial and radioactivity was measured in a Packard Liquid Scintillation Counter (model 1500).
A 5 μL dosing aliquot of each of the six test solutions was applied to the surface of a nail plate with a microsyringe twice daily, approximately 8 h apart for 7 days. Starting the second day, each morning before dosing, the surface of the nail was washed with cotton tips in a cycle, as follows: a dry tip, then a tip wetted with 50% skin cleansing liquid Ivory soap, then a tip wetted with distilled water, then another tip wetted with distilled water, then a final dry tip. This simulated a daily bathing. The washing samples from each cycle from each nail were pooled and collected by breaking off the cotton tip into scintillation glass vials. An aliquot of 5.0 mL methanol was added into each vial to extract test material. The radioactivity of each sample was measured in a liquid scintillation counter.
A Teflon® one-chamber diffusion cell (AMIE Systems) was used to hold each nail. To approximate physiological conditions, a small cotton ball wetted with 0.1 mL normal saline was placed in the chamber to serve as a “nail bed” and provide moisture for the nail plate. On day 5, 0.1 mL normal saline was injected through the inlet into the chamber to keep the cotton ball wet. A 1.5×1.5 cm aluminum sheet (0.24 mm thickness) with a hole in the center (1.0 cm diameter) was centered and glued to the top (dorsal) surface of the nail as a “frame” for the seal. The aluminum sheet frame flattens the curved nail and extends the surface area of the nail plate to fit the size of the top cover, so that potential leaking is prevented. The nail plate was placed on a ledge inside the receptor (1.0 cm in diameter and 0.5 cm high), sheet side up. The ventral (inner) surface of the nail was placed face down and rested on the wet cotton ball. Hydration of the nail plate and the supporting cotton bed was measured with a relative humidity/temperature meter (Corneometer CM 820; Courage & Khazaka, Cologne, Germany). Hydration was expressed digitally in arbitrary units (AU).
The rim of the cell base was covered with silicon gel and the top cover was set into the gel to prevent leaking. The metal holder was then tightly screwed into place.
The cells were placed on a platform in a large glass holding tank filled with saturated sodium phosphate solution. A digital relative humidity/temperature meter was used for monitoring room temperature, the chamber temperature, and humidity. The holding tank was then covered, thereby maintaining the cells at a constant humidity of 40%.
The sampling instrument consisted of a drill (Dremel™ model 2850; Dremel Inc., Racine, Wis.), a drill press (Dremel™), an adjustable stage (Fisher, Pittsburgh, Pa.) with an adjustable holder, and a high-speed cutter ( 5/16 inch or 7.9 mm in diameter).
After completion of the incubation phase, the nail plate was removed from the diffusion cell. The aluminum sheet frame was peeled off and placed in a glass scintillation vial. The nail plate was transferred to a clean Teflon® diffusion cell for processing. The nail plate was inverted so that the ventral (nail bed) surface faced up and the dorsal (outer) dosed surface faced down. A top cover was tightly screwed into place. The cell was placed in the middle of the holds on the adjustable stage.

[2] = cited from earlier work
[3] = cited from earlier work; remark: listed apart in the source
[4] = Test Carrier Formulation (45% DMSO)

Structure (SMILES): O=C(O)Cc1ccccc1Nc1c(Cl)cccc1Cl [diclofenac]
- Human skin penetration over the 48 h of study ([2]; multiple dosing, four doses/day for 2 days, in the carrier, compared with a saline control): continually increased

Structure (SMILES): NC(N)=O [Urea, urea]
- pKa [3]: 0.1
- Radioactive Content, Dorsal/intermediate center ([1]; Saline Formulation): 0.4 (0.3) μg Eq./g Nail Sample
- Radioactive Content, Ventral/intermediate center ([1]; Saline Formulation): 0.2 (0.09) μg Eq./g Nail Sample
- Radioactive Content, Dorsal/intermediate center [1, 4]: 0.8 (0.5) μg Eq./g Nail Sample
- Radioactive Content, Ventral/intermediate center [1, 4]: 0.35 (0.15) μg Eq./g Nail Sample
- Increase of radioactivity in the ventral surface of the nail plate, carrier formulation compared with saline control [1]: approximately 50%

Structure (SMILES): O=C(O)Cc1ccccc1Nc1c(Cl)cccc1Cl [diclofenac sodium]
- Permeability of human skin with the percutaneous drug-enhancing formulation ([2]; carrier formulation): enhanced the permeability

More lines, now with the values ahead:

- Percent Applied Dose, Cotton supporting bed ([1]; Saline Formulation): 3.66 (2.02) Percent Applied Dose
- Percent Applied Dose, Dorsal/intermediate center ([1]; Saline Formulation): 47.10 (7.76) Percent Applied Dose
- Percent Applied Dose, Remainder of nail ([1]; Saline Formulation): 14.20 (5.10) Percent Applied Dose
- Percent Applied Dose, Subtotal (nail) ([1]; Saline Formulation): 63.83 (9.54) Percent Applied Dose
- Percent Applied Dose, Surface Washing ([1]; Saline Formulation): 20.69 (5.97) Percent Applied Dose
- Percent Applied Dose, Total (mass balance) ([1]; Saline Formulation): 88.18 (5.52) Percent Applied Dose
- Percent Applied Dose, Ventral/intermediate center ([1]; Saline Formulation): 2.53 (0.51) Percent Applied Dose
- Radioactive Content, Dorsal/intermediate center ([1]; Saline Formulation): 71.6 (10.6) μg Eq./g Nail Sample
- Radioactive Content, Ventral/intermediate center ([1]; Saline Formulation): 7.0 (1.1) μg Eq./g Nail Sample
- Radioactive Content, Dorsal/intermediate center [1, 4]: 16.3 (4.2) μg Eq./g Nail Sample
- Radioactive Content, Ventral/intermediate center [1, 4]: 10.2 (0.6) μg Eq./g Nail Sample
- Percent Applied Dose, Cotton supporting bed ([1]; Test Carrier Formulation): 2.23 (0.75) Percent Applied Dose
- Percent Applied Dose, Dorsal/intermediate center ([1]; Test Carrier Formulation): 4.96 (2.13) Percent Applied Dose
- Percent Applied Dose, Remainder of nail ([1]; Test Carrier Formulation): 3.87 (1.26) Percent Applied Dose
- Percent Applied Dose, Subtotal (nail) ([1]; Test Carrier Formulation): 15.87 (3.76) Percent Applied Dose
- Percent Applied Dose, Surface Washing ([1]; Test Carrier Formulation): 70.86 (2.62) Percent Applied Dose
- Percent Applied Dose, Total (mass balance) ([1]; Test Carrier Formulation): 88.96 (2.29) Percent Applied Dose
- Percent Applied Dose, Ventral/intermediate center ([1]; Test Carrier Formulation): 7.04 (2.67) Percent Applied Dose
- Increase of radioactivity in the ventral surface of the nail plate, carrier formulation compared with saline control [1]: approximately 50%
Structure (SMILES): O=C(O)c1ccccc1O [salicylic acid]

- Increase of radioactivity in the ventral surface of the nail plate, carrier formulation compared with saline control [1]: approximately 50%
Structure (SMILES): CC(=O)N1CCN(c2ccc(OCC3COC(Cn4ccnc4)(c4ccc(Cl)cc4Cl)O3)cc2)CC1 (stereo not shown) [Ketoconazole, ketoconazole]
